Test results as given in US11833137B2, “Substituted chromenones, IRE1 inhibitors, and methods of using same” (The Wistar Institute, priority 2018, dated 2023).
“Also recorded” adds a separate entry of the source.

Experiments:
[1] = system: XBP-1s expression, 5TGM1 cells; test: XBP-1s immunoblot in 5TGM1 multiple myeloma cells; format: cell-based, mouse; details: for suppression of XBP-1s expression, long term: 10 μM for a course of 3 days
Description: 5TGM1 mouse multiple myeloma cells, primary mouse B cells, primary mouse Eμ-TCL1 CLL cells, and human CLL cell lines (MEC2 and WaC3) were cultured at 37° C. in a 5% CO2 incubator using RPMI 1640 media (Gibco) supplemented with 10% heat-inactivated FBS, 2 mM L-glutamine, 100 U/mL penicillin G sodium, 1 mM sodium pyruvate, 0.1 mM non-essential amino acids, 100 μg/mL streptomycin sulfate and 0.1 mM β-mercaptoethanol (β-ME).
Cells were lysed using RIPA buffer (10 mM Tris-HCl, pH 7.4, 150 mM NaCl, 1% NP-40, 0.5% sodium deoxycholate, 0.1% SDS, and 1 mM EDTA) supplemented with protease inhibitors (Roche). Protein concentrations were determined by BCA assays (Pierce).
Samples were boiled in SDS-PAGE sample buffer (62.5 mM Tris-HCl, pH 6.8, 2% SDS, 10% glycerol, 0.1% bromophenol blue) with β-ME and analyzed by SDS-PAGE. Proteins were transferred to nitrocellulose membranes, blocked in 5% nonfat milk (wt/vol in PBS), and immunoblotted with indicated primary antibodies and appropriate horseradish peroxidase-conjugated secondary antibodies. Immunoblots were developed using Western Lighting Chemiluminescence Reagent (PerkinElmer).
To develop inhibitors with improved potency to target the IRE1/XBP-1 pathway, tricyclic chromenone-based IRE1 RNase inhibitors with different amine group (R^1) were synthesized and compared: allyloxycarbonyl (alloc) in B-H09 (1), —H in C-B06 (2), and —CH3 in C-D06 (3) (FIG. 1A). 5TGM1 multiple myeloma cells were chosen to evaluate inhibitory effects of these inhibitors because they have constitutively activated IRE1/XBP-1 pathways.

[2] = Solubility in organic solvent (DMSO); format: physicochemical; details: such as DMSO
5TGM1 cells = test: Cell proliferation XTT assay, 5TGM1; format: cell-based, mouse
Description: 5TGM1 cells were suspended in phenol red-free RPMI media, seeded in 96-well cell culture plates, and treated with indicated IRE1 inhibitors (20 μM, unless indicated otherwise). At indicated time points, cells were spun down and cell proliferation was assessed by XTT assays (Roche) according to the manufacturer's instructions. Briefly, 50 μl XTT labeling reagent, 1 μl electron-coupling reagent, and 100 μl phenol red-free RPMI media were combined and applied to each well of the 96-well plates. Cells were incubated for 4 h in a CO2 incubator to allow for the yellow tetrazolium salt XTT to be cleaved by mitochondrial dehydrogenases of metabolically active cells to form the orange formazan dye, which can be quantified at 492 nm using a BioTek SYNERGY™ NEO2 Multimode Reader.

WaC3 cells = test: Cell proliferation XTT assay, WaC3; format: cell-based, human; details: 20 μM for a course of 3 days
MEC2 cells = test: Cell proliferation XTT assay, MEC2; format: cell-based, human
[3] = In vivo pharmacokinetics, serum fluorescence; parameters: species or system Eμ-TCL1 mouse; details: single intraperitoneal injection of 58 mg/kg D-F07
Description: In vivo pharmacokinetics studies were carried out by intraperitoneally injecting 58 mg/kg D-F07 (347.36 Daltons) or 96 mg/kg TC-D-F07 (577.52 Daltons) into each Eμ-TCL1 mouse to achieve equivalent molar concentrations in the sera. Blood was collected via submandibular bleeding into an Eppendorf tube at 0.25-, 0.5-, 1-, and 1.5-h time points after a single injection. Blood samples were stored at room temperature for 5 min, placed on wet ice for 5 min, and centrifuged at 15,000 rpm/min for 5 min to obtain sera. D-F07 in sera was quantified by measuring the fluorescence intensity using a BioTek SYNERGY™ NEO2 Multimode Reader (Ex/Em: 350/456 nm). Each fluorescent reading value was adjusted by subtracting the background from serum samples without D-F07. D-F07 concentrations were calculated by fitting individual data points in a linear standard equation, y=bx+c. The D-F07 standard curve was created by measuring the fluorescence intensity in serum samples containing serially diluted D-F07. Data derived from three mice receiving the same treatment were plotted as means±SEM.

[4] = system: XBP-1s expression, CD5+ CLL cells from Eμ-TCL1 mice; test: XBP-1s immunoblot in primary CLL cells; format: cell-based, mouse; details: LPS-stimulated, 20 μM 16 h, then 0, 50 or 100 μM hydrogen peroxide 4 h
Description: (§1) FIGS. 5A-5J illustrate the finding that installation of a boronate cage cleavable by H2O2 stabilizes the 1,3-dioxane acetal protective group of D-F07 to allow for temporal inhibition of XBP-1s upon contact with H2O2. (FIG. 5A) A scheme showing that installation of a boronate-caged group stabilizes the 1,3-dioxane acetal protective group to allow for H2O2-mediated release of intact D-F07. (FIG. 5B) The fluorescence of BC-D-F07a (2.5 μM in the DMSO/PBS solution (v/v=1:99), Ex=360 nm) increases upon incubation with 0 to 200 μM hydrogen peroxide at room temperature for 1 h. (FIG. 5C) The fluorescence of BC-D-F07b (2.5 μM in the DMSO/PBS solution (v/v=1:99), Ex=360 nm) increases upon incubation with 0 to 2 mM hydrogen peroxide at 37° C. for 1 h. […] I0 was the initial fluorescence intensity of D-F07, BC-D-F07a or BC-D-F07b at 0 h. (FIG. 5E) The levels of hydrogen peroxide produced by 5TGM1, 72-h LPS-stimulated primary CLL, MEC2, and WaC3 cells were measured by Amplex Red with or without the addition of extracellular catalase (500 U/mL). (FIG. 5F) 5TGM1 cells were treated with BC-D-F07a at increasing concentrations for 24 h, lysed, and analyzed for the expression of indicated proteins by immunoblots. […] Cells were lysed and analyzed for the expression of indicated proteins by immunoblots. […] Cells were lysed and analyzed for the expression of indicated proteins by immunoblots. […]

[5] = system: XBP-1s expression, MEC2 cells; test: XBP-1s immunoblot in MEC2 cells; format: cell-based, human; details: 20 μM 16 h, then hydrogen peroxide 4 h
Description: as §1

[6] = Fluorescence stability (decomposition) in aqueous solution; format: physicochemical; details: aqueous solution, 37° C., 0 to 48 h, versus D-F07
Description: (FIG. 2B) 5TGM1 cells were treated with DMSO or with 20 μM 2, 4, 3, or 7 dissolved in DMSO for 3 days and subjected to XTT assays. Percentages of growth were determined by comparing treated groups with control groups (DMSO). Each data point derived from four independent groups receiving exactly the same treatment was plotted as mean±SD. Results are representative of three independent experiments. […] The values of I/I0 were plotted as a function of time and shown in the inset. I0 was the initial fluorescence intensity of 4 at 0 h. […] The values of I/I0 were plotted as a function of time and shown in the inset. I0 was the initial fluorescence intensity of 5 at 0 h. […] (FIG. 2G) The decomposition rates of 7 and 8 were plotted as a function of time in RPMI media incubated at 37° C. Aliquots were analyzed by HPLC and the peaks integrated.
FIGS. 5A-5J illustrate the finding that installation of a boronate cage cleavable by H2O2 stabilizes the 1,3-dioxane acetal protective group of D-F07 to allow for temporal inhibition of XBP-1s upon contact with H2O2. (FIG. 5A) A scheme showing that installation of a boronate-caged group stabilizes the 1,3-dioxane acetal protective group to allow for H2O2-mediated release of intact D-F07. (FIG. 5B) The fluorescence of BC-D-F07a (2.5 μM in the DMSO/PBS solution (v/v=1:99), Ex=360 nm) increases upon incubation with 0 to 200 μM hydrogen peroxide at room temperature for 1 h. (FIG. 5C) The fluorescence of BC-D-F07b (2.5 μM in the DMSO/PBS solution (v/v=1:99), Ex=360 nm) increases upon incubation with 0 to 2 mM hydrogen peroxide at 37° C. for 1 h. […] I0 was the initial fluorescence intensity of D-F07, BC-D-F07a or BC-D-F07b at 0 h. (FIG. 5E) The levels of hydrogen peroxide produced by 5TGM1, 72-h LPS-stimulated primary CLL, MEC2, and WaC3 cells were measured by Amplex Red with or without the addition of extracellular catalase (500 U/mL). (FIG. 5F) 5TGM1 cells were treated with BC-D-F07a at increasing concentrations for 24 h, lysed, and analyzed for the expression of indicated proteins by immunoblots. (FIG. 5G) CD5+ CLL cells purified from spleens of Eμ-TCL1 mice were stimulated with […], subsequently treated with BC-D-F07a at 20 μM for 16 h, and then incubated with hydrogen peroxide at indicated concentrations for another 4 h. Cells were lysed and analyzed for the expression of indicated proteins by immunoblots. […] Cells were lysed and analyzed for the expression of indicated proteins by immunoblots. […] Percentages of growth were determined by comparing treated groups with control groups (DMSO). […]
UV-vis and fluorescence spectra were carried out on a BioTek SYNERGY™ NEO2 instrument (96 well plate).

For `COc1cc2c3c(c(=O)oc2c(C2OCCCO2)c1O)CNCC3` [Compound 11, 7-(1,3-dioxan-2-yl)-8-hydroxy-9-methoxy-1,2,3,4-tetrahydro-5H-chromeno[3,4-c]pyridin-5-one], which “suppression of XBP-1s expression, long term” value [1] is on record?
Its value is “more potent than 4 in suppressing XBP-1s expression; also recorded: less potent than D-F07 in suppressing the expression of XBP-1s”.

And the “solubility relative to 4” value [2]?
Its value is “at least 16 times less soluble”.

Which “suppression of XBP-1s after removal of compound from media” value ([1]; 10 μM 4 h, washed, UV 10 min, 8 h culture) does the source give for `COc1cc2c3c(c(=O)oc2c(C2OCCCO2)c1O)CN(C)CC3` [D-F07, 7-(1,3-dioxan-2-yl)-8-hydroxy-9-methoxy-3-methyl-1,2,3,4-tetrahydro-5H-chromeno[3,4-c]pyridin-5-one] here?
Its value is “failed to suppress XBP-1s continuously”.

What about the “suppression of XBP-1s expression, long term” value [1] of the same molecule?
The value was “better long-term efficacy in suppressing the expression of XBP-1s than 7 and 10”.

And the “overall comparison of inhibition of IRE-1 / XBP-1s expression in whole cells” value ([1]; summary statement)?
Its value is “most potent effect in inhibiting the expression of XBP-1s in whole cells”.

And the “growth inhibition / cytotoxicity (XTT)” value (5TGM1 cells; 20 μM for a course of 3 days)?
The value was “higher cytotoxicity than 3 and 7”.

What about the “growth suppression (XTT)” value (WaC3 cells) of the same molecule?
Its value is “initially more potent than 7 and 8 in suppressing WaC3 cell growth; also recorded: suppressed WaC3 cell growth potently”.

What about the “cytotoxicity / growth inhibition (XTT)” value (MEC2 cells; indicated concentrations, 24 h) of the same molecule?
The value was “not cytotoxic to MEC2 cells”.

What about the peak serum concentration [3] of the same molecule?
Its peak serum concentration is 10203 ng/mL.

For `COc1cc2c3c(c(=O)oc2c(C2OCCCO2)c1OCc1ccc(B2OC(C)(C)C(C)(C)O2)cc1)CN(C)CC3` [BC-D-F07a, 7-(1,3-dioxan-2-yl)-9-methoxy-3-methyl-8-((4-(4,4,5,5-tetramethyl-1,3,2-dioxaborolan-2-yl)benzyl)oxy)-1,2,3,4-tetrahydro-5H-chromeno[3,4-c]pyridin-5-one], which “suppression of XBP-1s” value ([1]; increasing concentrations, 24 h) is on record?
The value was “dose-dependent suppression of XBP-1s”.

What about the “suppression of XBP-1s expression” value [4] of the same molecule?
The value was “suppress the expression of XBP-1s”.

What about the “suppression of XBP-1s” value [5] of the same molecule?
Its value is “more efficient suppression of XBP-1s”.

What about the “growth suppression (XTT)” value (5TGM1 cells; 20 μM for 2 days) of the same molecule?
The value was “could not efficiently oxidize BC-D-F07a, inhibit XBP-1s, or suppress cell growth”.

What about the “growth inhibition (XTT)” value (MEC2 cells; 20 μM for 2 days) of the same molecule?
The value was “less capable than D-F07 in inhibiting growth of MEC2 cells”.

And the “hydrolysis of 1,3-dioxane acetal by fluorescence decay” value [6]?
Its value is “stabilized the 1,3-dioxane acetal protecting group”.
